Data on 15 molecules can be found in ChEMBL document CHEMBL3745649, “Structure-activity relationship study of anticancer thymidine-quinoxaline conjugates under the low radiance of long wavelength ultraviolet light for photodynamic therapy” (Eur J Med Chem, 2016).

Active and inactive are the calls of the source. No cut-off for these calls is given here. Where only a bound is given, the exact number is not on record here.

Data set [1] has as its system PANC-1. The data set is described as follows: Antioxidant activity in human PANC1 cells assessed as reduction of H2O2-induced reactive oxygen stress level at 5 uM after 15 mins by DCFH-DA based fluorescence assay. The class given is functional, cell-based.
Data set [2] in a line: Cytotoxicity against human Bel7402 cells assessed as viable cells at 50 uM. Particulars: Bel-7402, read-out: Activity. Type of data set: functional.
Data set [3] can be described thus: Cytotoxicity against human PANC1 cells assessed as viable cells at 50 uM. Type of data set: functional. Particulars: PANC-1, read-out: Activity.
Data set [4] can be described thus: Dark toxicity against human Bel7402 cells assessed as cell viability after 53 hrs by CCK8 assay in absence of UVA-1 irradiation. The class given is cell-based, Bel-7402.
Data set [5] in a line: Dark toxicity against human PANC1 cells assessed as cell viability after 53 hrs by CCK8 assay in absence of UVA-1 irradiation. Type of data set: cell-based, PANC-1.
Data set [6] can be described thus: Photocytotoxicity against human Bel7402 cells assessed as cell viability preincubated for 5 hrs followed by UVA-1 irradiation at 0.85 mW/cm'2 for 20 mins measured after 48 hrs by CCK8 assay. The class given is functional, cell-based. Particulars: Bel-7402, light or radiation study.
Data set [7] is described as follows: Photocytotoxicity against human PANC1 cells assessed as cell viability preincubated for 5 hrs followed by UVA-1 irradiation at 0.85 mW/cm'2 for 20 mins measured after 48 hrs by CCK8 assay. The class given is functional, cell-based. Particulars: PANC-1, light or radiation study.
Data set [8] has as its system PANC-1. Nature of the data set: Photocytotoxicity against human PANC1 cells assessed as production of reactive oxygen stress at 5 uM preincubated for 5 hrs followed by UVA-1 irradiation at 0.85 mW/cm'2 for 20 mins measured for 10 mins by DCFH-DA based fluorescence microscopic analysis. Type of data set: functional, cell-based.
Data set [9] concerns PANC-1. Nature of the data set: Antioxidant activity in human PANC1 cells assessed as reduction of reactive oxygen stress level at 5 uM after 15 mins by DCFH-DA based fluorescence assay in absence of H2O2. Type of data set: functional, cell-based.
The next data set has as its system Bel-7402. The data set is described as follows: Photocytotoxicity against human Bel7402 cells assessed as production of reactive oxygen stress at 5 uM preincubated for 5 hrs followed by UVA-1 irradiation at 0.85 mW/cm'2 for 20 mins measured for 10 mins by DCFH-DA based fluorescence microscopic analysis. The class given is functional, cell-based.
A further data set concerns HepG2. The data set is described as follows: Cytotoxicity against human HepG2 cells assessed as cell viability after 72 hrs by MTT assay. Type of data set: functional, cell-based. Particulars: HepG2, 72 h.
Data set [10] in a line: Cytotoxicity against human Hep3B cells assessed as cell viability after 72 hrs by MTT assay. The class given is functional, cell-based, Hep 3B2.
Another data set deals with H22. Nature of the data set: Cytotoxicity against […] cells assessed as cell viability after 72 hrs by MTT assay. Type of data set: functional, cell-based. Particulars: Mus musculus, H22, 72 h.
A further data set deals with C6. The data set is described as follows: Cytotoxicity against rat C6 cells assessed as cell viability after 72 hrs by MTT assay. The class given is functional, cell-based. Particulars: C6, 72 h.
The next data set has as its system MCF7. The data set is described as follows: Cytotoxicity against human MCF7 cells assessed as cell viability after 72 hrs by MTT assay. The class given is functional, cell-based. Particulars: MCF7, 72 h.
Data set [11] in a line: Photocytotoxicity against human PANC1 cells assessed as cell viability preincubated for 5 hrs with cells followed by UVA-1 irradiation at 3.0 mW/cm'2 for 20 mins measured after 48 hrs by CCK8 assay. The class given is functional, cell-based. Particulars: PANC-1, light or radiation study.
A short description of data set [12]: Photocytotoxicity against human Bel7402 cells assessed as cell viability preincubated for 5 hrs with cells followed by UVA-1 irradiation at 3.0 mW/cm'2 for 20 mins measured after 48 hrs by CCK8 assay. Type of data set: functional, cell-based. Particulars: Bel-7402, light or radiation study.

As for `[N-]=[N+]=N[C@@H]1O[C@H](CO)[C@H](O)[C@H](O)[C@H]1O`, in the data set with PANC-1 [1], the result was Active.

Turning to `Nc1ccn([C@@H]2O[C@H](CO)[C@@H](O)C2(F)F)c(=O)n1` [GEMCITABINE], the viability at 50 µM in data set [2] and in [3] was below 20% each time.

Consider `Cc1cn([C@H]2C[C@H](n3cc(CNC(=O)CCCCCOc4ccc5c(c4)-c4nc6ccccc6nc4[C@H]4C(C)(C)CCC[C@]54C)nn3)[C@@H](CO)O2)c(=O)[nH]c1=O`, for which the EC50 at 53 h is above 20 µM in data set [4] and above 50 µM in data set [5]. Besides, the EC50 was determined as 5.1 µM in [6] and 11.3 µM in data set [7].

In the case of `Cc1cn([C@H]2C[C@H](n3cc(CNC(=O)CCCCCCCOc4ccc5c(c4)-c4nc6ccccc6nc4[C@H]4C(C)(C)CCC[C@]54C)nn3)[C@@H](CO)O2)c(=O)[nH]c1=O`, the EC50 at 53 h in data set [4] is 10 µM; in data set [5], above 50 µM. The EC50 is 5.6 µM in data set [6] and 8.1 µM in [7].

For the molecule `Cc1cn([C@H]2C[C@H](n3cc(CCCC(=O)Nc4cc5ccc6cccc7ccc(c4)c5c67)nn3)[C@@H](CO)O2)c(=O)[nH]c1=O`, the EC50 at 53 h in data set [4] and in data set [5] was above 50 µM each time. For the same molecule, the EC50 in [6] and in [7] was above 20 µM each time.

As to `Cc1cn([C@H]2C[C@H](n3cc(CNC(=O)CCCCCOc4ccc5c(c4)-c4nc6cc(Br)c(Br)cc6nc4[C@@H]4C(C)(C)CCC[C@]54C)nn3)[C@@H](CO)O2)c(=O)[nH]c1=O`, the half-maximal effective concentration (EC50) at 53 h in data set [4] is above 20 µM; in data set [5] it was at least 50 µM. Besides, the results for the EC50 in data set [6] and in [7] were 2.1 µM and 5.8 µM, respectively.

On to `Cc1cn([C@H]2C[C@H](n3cc(CNC(=O)CCCCCOc4ccc5c(c4)-c4nc6ccc(F)cc6nc4[C@@H]4C(C)(C)CCC[C@]54C)nn3)[C@@H](CO)O2)c(=O)[nH]c1=O`, for which the EC50 at 53 h in [4] is 10 µM; in data set [5], at least 50 µM. Further, the EC50 in [6] is 7.4 µM; in [7], 13.5 µM.

With `Cc1cn([C@H]2C[C@H](n3cc(CNC(=O)CCCOc4ccc5c(c4)-c4nc6ccccc6nc4[C@@H]4C(C)(C)CCC[C@]54C)nn3)[C@@H](CO)O2)c(=O)[nH]c1=O`, the values for the EC50 at 53 h in data set [4] and in data set [5] were above 20 µM and 20 µM, respectively. The EC50 was 10.9 µM in [6] and above 10 µM in data set [7].

For the molecule `CC1(C)CCC[C@]2(C)c3ccc(OCCCCCC(=O)NCc4cn([C@@H]5O[C@H](CO)[C@H](O)[C@H](O)[C@H]5O)nn4)cc3-c3nc4ccccc4nc3[C@H]12`, the outcome in the data set on PANC-1 [8] and in the data set with Bel-7402 was inactive. Also, the outcome in the data set on PANC-1 [9] and in the data set with PANC-1 [1] was Active. Besides, the EC50 at 53 h in data set [4] and in data set [5] was above 50 µM throughout. Besides, the EC50 in data set [6] and in data set [7] was above 20 µM each time.

With `Cc1cn([C@H]2C[C@H](n3cc(CNC(=O)CCCCCOc4ccc5c(c4)-c4nc6ccccc6nc4[C@@H]4C(C)(C)CCC[C@]54C)nn3)[C@@H](CO)O2)c(=O)[nH]c1=O`, the result in the data set on PANC-1 [8], with PANC-1 [1] and in the data set with Bel-7402 was Active. Besides, the EC50 with HepG2 came to 6 µM; in [10], 6 µM; in the data set on H22, 6 µM; in the data set on C6 it was 6 µM; with MCF7, 6 µM; in [6], 4.2 µM. Further, the concentration giving a half-maximal response (EC50) in data set [7] worked out at 9.8 µM. For the same molecule, the EC50 at 53 h in data set [4] is 10 µM; in data set [5], at least 50 µM.

Regarding `Cc1cn([C@H]2C[C@H](n3cc(CNC(=O)CCCCCCCOc4ccc5c(c4)-c4nc6ccccc6nc4[C@@H]4C(C)(C)CCC[C@]54C)nn3)[C@@H](CO)O2)c(=O)[nH]c1=O`, the results for the EC50 at 53 h in [4] and in data set [5] were 10 µM and at least 50 µM, respectively. In addition, the figures for the concentration for a half-maximal effect (EC50) in data set [6] and in data set [7] were 4 µM and 5.7 µM, respectively.

Take `Cc1cn([C@H]2C[C@H](n3cc(CNC(=O)CCCCCOc4ccc5c(c4)-c4nc6cc(F)ccc6nc4[C@@H]4C(C)(C)CCC[C@]54C)nn3)[C@@H](CO)O2)c(=O)[nH]c1=O`: the figures for the EC50 at 53 h in [4] and in data set [5] were 10 µM and 20 µM, respectively. The EC50 in [6] worked out at 4 µM; in data set [7] it was 7 µM.

For the molecule `CCN(CC)CCNC(=O)c1c(C)[nH]c(/C=C2\C(=O)Nc3ccc(F)cc32)c1C` [SUNITINIB], the results for the half-maximal effective concentration (EC50) in data set [11] and in data set [12] were 13 µM and 11 µM, respectively.

As to `Cc1cn([C@H]2C[C@H](n3cc(CNC(=O)COc4ccc5c(c4)-c4nc6ccccc6nc4[C@@H]4C(C)(C)CCC[C@]54C)nn3)[C@@H](CO)O2)c(=O)[nH]c1=O`, the EC50 at 53 h in [4] was above 20 µM; in [5], 20 µM. Also, the results for the EC50 in data set [6] and in data set [7] were 12.5 µM and above 20 µM, respectively.

Regarding `Cc1cn([C@H]2C[C@H](n3cc(CNC(=O)CCCCCOc4ccc5c(c4)C(=O)C(=O)[C@@H]4C(C)(C)CCC[C@]54C)nn3)[C@@H](CO)O2)c(=O)[nH]c1=O`, the EC50 at 53 h in [4] and in data set [5] was above 50 µM throughout. Besides, the EC50 in data set [6] and in data set [7] was above 20 µM each time.
